Reference: ChEMBL document CHEMBL1149425, “A novel class of sodium/calcium exchanger inhibitors: design, synthesis, and structure-activity relationships of 4-phenyl-3-(piperidin-4-yl)-3,4-dihydro-2(1H)-quinazolinone derivatives” (Bioorg Med Chem Lett, 2006)
Peptide text beside a SMILES is read from it.

target: Sodium/calcium exchanger 1 (Cavia porcellus) (UniProt P48766); assay: Inhibitory activity against Sodium/Calcium exchanger in isolated guinea pig left atria
Sequence (P48766 whole entry, looked up): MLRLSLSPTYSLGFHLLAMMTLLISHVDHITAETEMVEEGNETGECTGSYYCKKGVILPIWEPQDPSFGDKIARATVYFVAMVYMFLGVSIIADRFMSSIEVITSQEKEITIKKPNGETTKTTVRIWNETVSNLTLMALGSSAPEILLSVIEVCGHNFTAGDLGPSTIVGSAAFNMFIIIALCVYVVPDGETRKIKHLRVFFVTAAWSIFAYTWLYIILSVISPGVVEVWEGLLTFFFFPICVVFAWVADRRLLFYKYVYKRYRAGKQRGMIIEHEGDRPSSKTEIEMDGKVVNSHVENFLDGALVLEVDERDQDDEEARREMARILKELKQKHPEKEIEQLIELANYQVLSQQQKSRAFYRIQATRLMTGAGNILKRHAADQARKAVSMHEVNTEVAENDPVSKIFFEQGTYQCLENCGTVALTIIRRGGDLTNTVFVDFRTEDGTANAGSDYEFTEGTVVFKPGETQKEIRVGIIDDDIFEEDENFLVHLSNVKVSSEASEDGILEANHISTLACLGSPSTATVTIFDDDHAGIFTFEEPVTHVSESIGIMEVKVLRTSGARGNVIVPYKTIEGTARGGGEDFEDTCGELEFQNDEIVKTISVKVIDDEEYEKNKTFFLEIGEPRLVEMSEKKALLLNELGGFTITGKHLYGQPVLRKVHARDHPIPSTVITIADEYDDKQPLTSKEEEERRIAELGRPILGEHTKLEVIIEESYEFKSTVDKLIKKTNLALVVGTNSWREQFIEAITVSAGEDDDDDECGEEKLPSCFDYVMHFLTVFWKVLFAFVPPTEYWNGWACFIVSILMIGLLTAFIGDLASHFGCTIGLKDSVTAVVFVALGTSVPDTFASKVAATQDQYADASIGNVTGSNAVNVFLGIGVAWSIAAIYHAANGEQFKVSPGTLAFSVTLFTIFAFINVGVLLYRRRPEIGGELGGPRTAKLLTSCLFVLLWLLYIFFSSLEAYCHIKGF

**Q.** `O=C1Nc2ccccc2C(c2ccccc2)N1C1CCN(Cc2ccccc2)CC1` (stereo not given) was tested. Which IC30 did it give?
**A.** Its IC30 is 17 nM.

**Q.** For `O=C1Nc2ccccc2C(c2ccccc2)N1C1CCN(Cc2ccsc2)CC1` (stereo not given), which IC30 is on record?
**A.** The IC30 was 3900 nM.

**Q.** `O=C1Nc2ccccc2C(c2ccccc2)N1C1CCN(Cc2ccoc2)CC1` (stereo not given) was tested. Which IC30 did it give?
**A.** The IC30 was 17 nM.

**Q.** `O=C1Nc2ccccc2C(c2ccccc2)N1C1CCN(Cc2ccccn2)CC1` (stereo not given) was tested. Which IC30 did it give?
**A.** The IC30 was 390 nM.

**Q.** `O=C1Nc2ccccc2C(c2ccccc2)N1C1CCN(Cc2ccncc2)CC1` (stereo not given) was tested. Which IC30 did it give?
**A.** Its IC30 is 480 nM.

**Q.** Which IC30 does the source give for `O=C1Nc2ccccc2C(c2ccccc2)N1C1CCN(Cc2ccco2)CC1` (stereo not given) here?
**A.** The IC30 was 8300 nM.

**Q.** How did the IC30 turn out when `COCc1cccc(CN2CCC(N3C(=O)Nc4ccccc4C3c3ccccc3)CC2)c1` (stereo not given) was run?
**A.** Its IC30 is 490 nM.

**Q.** For `O=C1Nc2ccccc2C(c2ccccc2)N1C1CCN(Cc2cccnc2)CC1` (stereo not given), which IC30 is on record?
**A.** Its IC30 is 160 nM.

**Q.** Which IC30 does the source give for `Cc1cccc(CN2CCC(N3C(=O)Nc4ccccc4C3c3ccccc3)CC2)c1` (stereo not given) here?
**A.** The IC30 was 560 nM.

**Q.** For `O=C1Nc2ccccc2C(c2ccccc2)N1C1CCN(Cc2ccc(Cl)cc2)CC1` (stereo not given), which IC30 is on record?
**A.** The IC30 was 620 nM.

**Q.** `COc1cc(CN2CCC(N3C(=O)Nc4ccccc4C3c3ccccc3)CC2)cc(OC)c1` (stereo not given) was tested. Which IC30 did it give?
**A.** Its IC30 is greater than 10000 nM.

**Q.** How did the IC30 turn out when `O=C1Nc2ccccc2C(c2ccccc2)N1C1CCN(Cc2cccc(Cl)c2)CC1` (stereo not given) was run?
**A.** Its IC30 is 540 nM.

**Q.** How did the IC30 turn out when `COc1cccc(CN2CCC(N3C(=O)Nc4ccccc4C3c3ccccc3)CC2)c1` (stereo not given) was run?
**A.** The IC30 was 8.4 nM.

**Q.** With `CSCC[C@H](NC(=O)[C@@H](N)C(C)C)C(=O)N[C@@H](CCCN=C(N)N)C(=O)N[C@@H](Cc1ccccc1)C(N)=O` (H-VMRF-NH2) as the compound, how does the IC30 read?
**A.** Its IC30 is 10000 nM.

**Q.** For `O=C1Nc2ccccc2C(c2ccccc2)N1C1CCN(Cc2ccccc2Cl)CC1` (stereo not given), which IC30 is on record?
**A.** The IC30 was 9000 nM.

**Q.** `O=C1Nc2ccccc2C(c2ccccc2)N1C1CCN(Cc2cccs2)CC1` (stereo not given) was tested. Which IC30 did it give?
**A.** Its IC30 is 1700 nM.

**Q.** How did the IC30 turn out when `COc1ccc(CN2CCC(N3C(=O)Nc4ccccc4C3c3ccccc3)CC2)cc1` (stereo not given) was run?
**A.** Its IC30 is 250 nM.

**Q.** With `COc1ccccc1CN1CCC(N2C(=O)Nc3ccccc3C2c2ccccc2)CC1` (stereo not given) as the compound, how does the IC30 read?
**A.** Its IC30 is greater than 10000 nM.

**Q.** `CCOc1cccc(CN2CCC(N3C(=O)Nc4ccccc4C3c3ccccc3)CC2)c1` (stereo not given) was tested. Which IC30 did it give?
**A.** The IC30 was 580 nM.

**Q.** Which IC30 does the source give for `COc1cc(CN2CCC(N3C(=O)Nc4ccccc4C3c3ccccc3)CC2)cc(OC)c1OC` (stereo not given) here?
**A.** The IC30 was greater than 10000 nM.
